Laboratory results as given in ChEMBL document CHEMBL1156230, “Identification of phenylsulfone-substituted quinoxaline (WYE-672) as a tissue selective liver X-receptor (LXR) agonist” (J Med Chem, 2010).
The source made the active and inactive calls. The calls are words filed in the database; no cut-off is given here.

What was measured:
[1] = test system: Mus musculus; experiment: Antiatherosclerotic activity against high fat/high cholesterol fed LDLR-deficient mouse duodenum assessed as induction of ABCA1 expression at 0.6 mg/kg administered with diet for 8 weeks; format: functional, organism-based; design: dose 0.6 mg/kg
[2] = test system: Mus musculus; experiment: Antiatherosclerotic activity against high fat/high cholesterol fed LDLR-deficient mouse assessed as pcsk9 gene regulation at 10 mg/kg administered with diet for 7 days by Experion chip analysis; format: functional, organism-based; design: dose 10 mg/kg
[3] = test system: Mus musculus; experiment: Antiatherosclerotic activity against high fat/high cholesterol fed LDLR-deficient mouse assessed as apo5 gene regulation at 0.6 mg/kg administered with diet for 7 days by Experion chip analysis; format: functional, organism-based; design: dose 0.6 mg/kg
[4] = test system: Mus musculus; experiment: Antiatherosclerotic activity against high fat/high cholesterol fed LDLR-deficient mouse assessed as scab1 gene regulation at 10 mg/kg administered with diet for 7 days by Experion chip analysis; format: functional, organism-based; design: dose 10 mg/kg
[5] = test system: Mus musculus; experiment: Antiatherosclerotic activity against high fat/high cholesterol fed LDLR-deficient mouse assessed as srebf1 gene regulation at 10 mg/kg administered with diet for 7 days by Experion chip analysis; format: functional, organism-based; design: dose 10 mg/kg
[6] = test system: Mus musculus; experiment: Antiatherosclerotic activity against high fat/high cholesterol fed LDLR-deficient mouse duodenum assessed as induction of ABCA1 expression at 3 mg/kg administered with diet for 8 weeks; format: functional, organism-based; design: dose 3 mg/kg
[7] = test system: Mus musculus; experiment: Antiatherosclerotic activity against high fat/high cholesterol fed LDLR-deficient mouse assessed as apoc1 gene regulation at 10 mg/kg administered with diet for 7 days by Experion chip analysis; format: functional, organism-based; design: dose 10 mg/kg
[8] = test system: Mus musculus; experiment: Antiatherosclerotic activity against high fat/high cholesterol fed LDLR-deficient mouse assessed as Fasn gene regulation at 10 mg/kg administered with diet for 7 days by Experion chip analysis; format: functional, organism-based; design: dose 10 mg/kg
[9] = test system: Mus musculus; experiment: Antiatherosclerotic activity against high fat/high cholesterol fed LDLR-deficient mouse assessed as pcsk9 gene regulation at 3 mg/kg administered with diet for 7 days by Experion chip analysis; format: functional, organism-based; design: dose 3 mg/kg
[10] = test system: Mus musculus; experiment: Antiatherosclerotic activity against high fat/high cholesterol fed LDLR-deficient mouse assessed as Lipc gene regulation at 3 mg/kg administered with diet for 7 days by Experion chip analysis; format: functional, organism-based; design: dose 3 mg/kg
[11] = test system: Mus musculus; experiment: Antiatherosclerotic activity against high fat/high cholesterol fed LDLR-deficient mouse duodenum assessed as induction of SREBP-1c expression at 10 mg/kg administered with diet for 8 weeks; format: functional, organism-based; design: dose 10 mg/kg
[12] = test system: Mus musculus; experiment: Antiatherosclerotic activity against high fat/high cholesterol fed LDLR-deficient mouse macrophages assessed as induction of ABCA1 expression at 10 mg/kg administered with diet for 8 weeks; format: functional, organism-based; design: dose 10 mg/kg
[13] = test system: Mus musculus; experiment: Antiatherosclerotic activity against high fat/high cholesterol fed LDLR-deficient mouse assessed as IPl gene regulation at 10 mg/kg administered with diet for 7 days by Experion chip analysis; format: functional, organism-based; design: dose 10 mg/kg
[14] = organism: Mus musculus; experiment: Antiatherosclerotic activity against high fat/high cholesterol fed LDLR-deficient mouse assessed as reduction in total plasma cholesterol; format: functional, organism-based
[15] = test system: Mus musculus; experiment: Antiatherosclerotic activity against high fat/high cholesterol fed LDLR-deficient mouse assessed as Irp1 gene regulation at 0.6 mg/kg administered with diet for 7 days by Experion chip analysis; format: functional, organism-based; design: dose 0.6 mg/kg
[16] = test system: Mus musculus; experiment: Antiatherosclerotic activity against high fat/high cholesterol fed LDLR-deficient mouse assessed as apoc1 gene regulation at 0.6 mg/kg administered with diet for 7 days by Experion chip analysis; format: functional, organism-based; design: dose 0.6 mg/kg
[17] = test system: Mus musculus; experiment: Antiatherosclerotic activity against high fat/high cholesterol fed LDLR-deficient mouse assessed as abcg5 gene regulation at 10 mg/kg administered with diet for 7 days by Experion chip analysis; format: functional, organism-based; design: dose 10 mg/kg
[18] = test system: Mus musculus; experiment: Antiatherosclerotic activity against high fat/high cholesterol fed LDLR-deficient mouse assessed as lipg gene regulation at 3 mg/kg administered with diet for 7 days by Experion chip analysis; format: functional, organism-based; design: dose 3 mg/kg
[19] = test system: Mus musculus; experiment: Antiatherosclerotic activity against high fat/high cholesterol fed LDLR-deficient mouse assessed as cyp7a1 gene regulation at 3 mg/kg administered with diet for 7 days by Experion chip analysis; format: functional, organism-based; design: dose 3 mg/kg
[20] = test system: Mus musculus; experiment: Antiatherosclerotic activity against high fat/high cholesterol fed LDLR-deficient mouse assessed as abcg1 gene regulation at 0.6 mg/kg administered with diet for 7 days by Experion chip analysis; format: functional, organism-based; design: dose 0.6 mg/kg
[21] = test system: Mus musculus; experiment: Antiatherosclerotic activity against high fat/high cholesterol fed LDLR-deficient mouse assessed as apoe gene regulation at 3 mg/kg administered with diet for 7 days by Experion chip analysis; format: functional, organism-based; design: dose 3 mg/kg
[22] = test system: Mus musculus; experiment: Antiatherosclerotic activity against high fat/high cholesterol fed LDLR-deficient mouse assessed as apo5 gene regulation at 3 mg/kg administered with diet for 7 days by Experion chip analysis; format: functional, organism-based; design: dose 3 mg/kg
[23] = test system: Mus musculus; experiment: Antiatherosclerotic activity against high fat/high cholesterol fed LDLR-deficient mouse macrophages assessed as induction of ABCA1 expression at 0.6 mg/kg administered with diet for 8 weeks; format: functional, organism-based; design: dose 0.6 mg/kg
[24] = test system: Mus musculus; experiment: Antiatherosclerotic activity against high fat/high cholesterol fed LDLR-deficient mouse duodenum assessed as induction of ABCG5 expression at 3 mg/kg administered with diet for 8 weeks; format: functional, organism-based; design: dose 3 mg/kg
[25] = test system: Mus musculus; experiment: Antiatherosclerotic activity against high fat/high cholesterol fed LDLR-deficient mouse macrophages assessed as induction of ABCG1 expression at 10 mg/kg administered with diet for 8 weeks; format: functional, organism-based; design: dose 10 mg/kg
[26] = test system: Mus musculus; experiment: Antiatherosclerotic activity against high fat/high cholesterol fed LDLR-deficient mouse duodenum assessed as induction of ABCA1 expression at 10 mg/kg administered with diet for 8 weeks; format: functional, organism-based; design: dose 10 mg/kg
[27] = test system: Mus musculus; experiment: Antiatherosclerotic activity against high fat/high cholesterol fed LDLR-deficient mouse assessed as abca1 gene regulation at 0.6 mg/kg administered with diet for 7 days by Experion chip analysis; format: functional, organism-based; design: dose 0.6 mg/kg
[28] = test system: Mus musculus; experiment: Antiatherosclerotic activity against high fat/high cholesterol fed LDLR-deficient mouse assessed as adfp gene regulation at 10 mg/kg administered with diet for 7 days by Experion chip analysis; format: functional, organism-based; design: dose 10 mg/kg
[29] = test system: Mus musculus; experiment: Antiatherosclerotic activity against high fat/high cholesterol fed LDLR-deficient mouse macrophages assessed as induction of ABCG1 expression at 0.6 mg/kg administered with diet for 8 weeks; format: functional, organism-based; design: dose 0.6 mg/kg
[30] = test system: Mus musculus; experiment: Antiatherosclerotic activity against high fat/high cholesterol fed LDLR-deficient mouse duodenum assessed as induction of ABCG5 expression at 10 mg/kg administered with diet for 8 weeks; format: functional, organism-based; design: dose 10 mg/kg
[31] = test system: Mus musculus; experiment: Antiatherosclerotic activity against high fat/high cholesterol fed LDLR-deficient mouse assessed as abcg8 gene regulation at 0.6 mg/kg administered with diet for 7 days by Experion chip analysis; format: functional, organism-based; design: dose 0.6 mg/kg
[32] = test system: Mus musculus; experiment: Antiatherosclerotic activity against high fat/high cholesterol fed LDLR-deficient mouse assessed as ldlr gene regulation at 10 mg/kg administered with diet for 7 days by Experion chip analysis; format: functional, organism-based; design: dose 10 mg/kg
[33] = test system: Mus musculus; experiment: Antiatherosclerotic activity against high fat/high cholesterol fed LDLR-deficient mouse assessed as scd1 gene regulation at 0.6 mg/kg administered with diet for 7 days by Experion chip analysis; format: functional, organism-based; design: dose 0.6 mg/kg
[34] = test system: Mus musculus; experiment: Antiatherosclerotic activity against high fat/high cholesterol fed LDLR-deficient mouse assessed as srebf1 gene regulation at 3 mg/kg administered with diet for 7 days by Experion chip analysis; format: functional, organism-based; design: dose 3 mg/kg
[35] = test system: Mus musculus; experiment: Antiatherosclerotic activity against high fat/high cholesterol fed LDLR-deficient mouse assessed as abcg8 gene regulation at 10 mg/kg administered with diet for 7 days by Experion chip analysis; format: functional, organism-based; design: dose 10 mg/kg
[36] = test system: Mus musculus; experiment: Antiatherosclerotic activity against high fat/high cholesterol fed LDLR-deficient mouse duodenum assessed as induction of ABCG8 expression at 10 mg/kg administered with diet for 8 weeks; format: functional, organism-based; design: dose 10 mg/kg
[37] = test system: Mus musculus; experiment: Antiatherosclerotic activity against high fat/high cholesterol fed LDLR-deficient mouse assessed as apoe gene regulation at 0.6 mg/kg administered with diet for 7 days by Experion chip analysis; format: functional, organism-based; design: dose 0.6 mg/kg
[38] = test system: Mus musculus; experiment: Antiatherosclerotic activity against high fat/high cholesterol fed LDLR-deficient mouse assessed as abcg8 gene regulation at 3 mg/kg administered with diet for 8 weeks by Experion chip analysis

Question: What does the source list for `O=C(O)Cc1cccc(OCCCN(Cc2cccc(C(F)(F)F)c2Cl)CC(c2ccccc2)c2ccccc2)c1`?
Answer: Activity [1]: Active; Activity [2]: Active; Activity [3]: Active; Activity [4]: Active; Activity [5]: Active; Activity [6]: Active; Activity [7]: Active; Activity [8]: Active; Activity [9]: Active; Activity [10]: Active; Activity [11]: Active; Activity [12]: Active; Activity [13]: Active; Activity [14]: inactive; Activity [15]: Active; Activity [16]: Active; Activity [17]: Active; Activity [18]: Active; Activity [19]: Active; Activity [20]: Active; Activity [21]: Active; Activity [22]: Active; Activity [23]: Active; Activity [24]: Active; Activity [25]: Active; Activity [26]: Active; Activity [27]: Active; Activity [28]: Active; Activity [29]: Active; Activity [30]: Active; Activity [31]: Active; Activity [32]: Active; Activity [33]: Active; Activity [34]: inactive; Activity [35]: Active; Activity [36]: Active; Activity [37]: Active; Activity [38]: Active

Question: Which Activity [1] does the source give for `Cc1nc2c(C(F)(F)F)cccc2nc1-c1ccc(-c2cccc(S(C)(=O)=O)c2)cc1` here?
Answer: Active

Question: What about the Activity [2] of the same compound?
Answer: Active

Question: What about the Activity [3] of the same compound?
Answer: Active

Question: What about the Activity [4] of the same compound?
Answer: Active

Question: What about the Activity [5] of the same compound?
Answer: Active

Question: And the Activity [6]?
Answer: Active

Question: What about the Activity [7] of the same compound?
Answer: Active

Question: What about the Activity [8] of the same compound?
Answer: Active

Question: What about the Activity [9] of the same compound?
Answer: Active

Question: What about the Activity [10] of the same compound?
Answer: Active

Question: What about the Activity [11] of the same compound?
Answer: Active

Question: And the Activity [12]?
Answer: Active

Question: And the Activity [13]?
Answer: Active

Question: What about the Activity [14] of the same compound?
Answer: inactive

Question: What about the Activity [15] of the same compound?
Answer: Active

Question: And the Activity [16]?
Answer: Active

Question: What about the Activity [17] of the same compound?
Answer: Active

Question: And the Activity [18]?
Answer: Active

Question: What about the Activity [19] of the same compound?
Answer: Active

Question: And the Activity [20]?
Answer: Active

Question: What about the Activity [21] of the same compound?
Answer: Active

Question: And the Activity [22]?
Answer: Active

Question: What about the Activity [23] of the same compound?
Answer: Active

Question: And the Activity [24]?
Answer: Active

Question: And the Activity [25]?
Answer: Active

Question: And the Activity [26]?
Answer: Active

Question: And the Activity [27]?
Answer: Active

Question: And the Activity [28]?
Answer: Active

Question: What about the Activity [29] of the same compound?
Answer: Active

Question: What about the Activity [30] of the same compound?
Answer: Active

Question: What about the Activity [31] of the same compound?
Answer: Active

Question: And the Activity [32]?
Answer: Active

Question: And the Activity [33]?
Answer: Active

Question: And the Activity [34]?
Answer: inactive

Question: And the Activity [35]?
Answer: Active

Question: What about the Activity [36] of the same compound?
Answer: Active

Question: What about the Activity [37] of the same compound?
Answer: Active

Question: And the Activity [38]?
Answer: Active
